Experimental data published in US20130303465A1, “Cylodextrin Complexation Methods for Formulating Peptide Proteasome Inhibitors” (ONYX THERAPEUTICS, INC., priority 2012, published 2013).

What was measured:
[1] = Slurry complexation of CFZ-API with SBECD and citric acid: dissolved complexed concentration; assay type: physicochemical
Description: In a 525 L stainless steel jacketed cooled tank controlled to 2° C.-8° C., a suspension of 2.0 kg carfilzomib-API (CFZ-API), 246 kg water for injection (WFI), and 100 kg sulfobutylether beta-cyclodextrin (SBECD) was prepared. Specifically, in the 525 L stainless steel jacketed cooled tank controlled to 2° C.-8° C., 100 kg SBECD was dissolved in 246 kg WFI. The Carfilzomib suspension was then prepared using 2.0 kg of CFZ-API. Mixing was performed using an impeller mixer to maintain suspension of the CFZ-API solids and dissolve the SBECD. In the same vessel, a probe style rotor-stator high shear mixer (homogenizer) was used as well as the low shear impeller. The high shear mixer was operated for approximately 1 hour yielding an even suspension and reduction of particle size for any larger primary particles or agglomerated API. After a suspension was achieved, 1.96 kg of citric acid was added as a 16% aqueous solution. The pH of the solution was then lowered inducing partial solubilization of the CFZ-API followed by and complexation due to the presence of SBECD. Mixing was continued for a further 24 hours with both the impeller and the high shear mixer and a dissolved concentration of CFZ-API of greater than 5.1 mg/mL was achieved. […]

[2] = Solubility of carfilzomib as a function of SBECD concentration, pH and temperature; assay type: physicochemical; conditions: SBECD solutions, citric acid 30 mM, pH 1.5 and pH 3.5, 5° C. and 25° C., 24 hours to equilibrate, FIG. 6
Description: The experiments at acidic conditions below the target pH values and titrated to pH 1.5 or 3.5 using aqueous sodium hydroside solution. Measurements of solubilized concentration were those from samples analyzed after 24 hours of time to equilibrate.

[3] = physchem

Q: Which “effect of higher SBECD concentration on solubility” value ([1]; FIG. 3) does the source give for `CC(C)C[C@H](NC(=O)[C@H](CCc1ccccc1)NC(=O)CN1CCOCC1)C(=O)N[C@@H](Cc1ccccc1)C(=O)N[C@@H](CC(C)C)C(=O)[C@@]1(C)CO1` [carfilzomib] here?
A: Its value is “increased the solubility”.

Q: What about the “dissolved concentration of CFZ-API” value ([1]; SBECD/WFI suspension plus citric acid, mixing 24 hours, 2-8° C., 400 L batch) of the same compound?
A: Its value is “greater than 5.1 mg/mL”.

Q: And the “solubility difference between low and high temperature” value [2]?
A: Its value is “No significant differences in solubility”.

Q: What about the solubility [3] of the same compound?
A: Its solubility is < 10 µg/mL.
